Measured values: ChEMBL document CHEMBL1781991, “Heteroalicyclic carboxamidines as inhibitors of inducible nitric oxide synthase; the identification of (2R)-2-pyrrolidinecarboxamidine as a potent and selective haem-co-ordinating inhibitor” (Bioorg Med Chem Lett, 2011)

Assays:
[1] = biological target: T1, Nitric oxide synthase, inducible (Homo sapiens, UniProt P35228); assay: Inhibition of human recombinant iNOS by microtiter plate assay
Nitric oxide synthase 1 = Nitric oxide synthase 1 (Homo sapiens, UniProt P29475); assay: Inhibition of human recombinant nNOS by microtiter plate assay
Chain of Nitric oxide synthase 1 (P29475 whole entry): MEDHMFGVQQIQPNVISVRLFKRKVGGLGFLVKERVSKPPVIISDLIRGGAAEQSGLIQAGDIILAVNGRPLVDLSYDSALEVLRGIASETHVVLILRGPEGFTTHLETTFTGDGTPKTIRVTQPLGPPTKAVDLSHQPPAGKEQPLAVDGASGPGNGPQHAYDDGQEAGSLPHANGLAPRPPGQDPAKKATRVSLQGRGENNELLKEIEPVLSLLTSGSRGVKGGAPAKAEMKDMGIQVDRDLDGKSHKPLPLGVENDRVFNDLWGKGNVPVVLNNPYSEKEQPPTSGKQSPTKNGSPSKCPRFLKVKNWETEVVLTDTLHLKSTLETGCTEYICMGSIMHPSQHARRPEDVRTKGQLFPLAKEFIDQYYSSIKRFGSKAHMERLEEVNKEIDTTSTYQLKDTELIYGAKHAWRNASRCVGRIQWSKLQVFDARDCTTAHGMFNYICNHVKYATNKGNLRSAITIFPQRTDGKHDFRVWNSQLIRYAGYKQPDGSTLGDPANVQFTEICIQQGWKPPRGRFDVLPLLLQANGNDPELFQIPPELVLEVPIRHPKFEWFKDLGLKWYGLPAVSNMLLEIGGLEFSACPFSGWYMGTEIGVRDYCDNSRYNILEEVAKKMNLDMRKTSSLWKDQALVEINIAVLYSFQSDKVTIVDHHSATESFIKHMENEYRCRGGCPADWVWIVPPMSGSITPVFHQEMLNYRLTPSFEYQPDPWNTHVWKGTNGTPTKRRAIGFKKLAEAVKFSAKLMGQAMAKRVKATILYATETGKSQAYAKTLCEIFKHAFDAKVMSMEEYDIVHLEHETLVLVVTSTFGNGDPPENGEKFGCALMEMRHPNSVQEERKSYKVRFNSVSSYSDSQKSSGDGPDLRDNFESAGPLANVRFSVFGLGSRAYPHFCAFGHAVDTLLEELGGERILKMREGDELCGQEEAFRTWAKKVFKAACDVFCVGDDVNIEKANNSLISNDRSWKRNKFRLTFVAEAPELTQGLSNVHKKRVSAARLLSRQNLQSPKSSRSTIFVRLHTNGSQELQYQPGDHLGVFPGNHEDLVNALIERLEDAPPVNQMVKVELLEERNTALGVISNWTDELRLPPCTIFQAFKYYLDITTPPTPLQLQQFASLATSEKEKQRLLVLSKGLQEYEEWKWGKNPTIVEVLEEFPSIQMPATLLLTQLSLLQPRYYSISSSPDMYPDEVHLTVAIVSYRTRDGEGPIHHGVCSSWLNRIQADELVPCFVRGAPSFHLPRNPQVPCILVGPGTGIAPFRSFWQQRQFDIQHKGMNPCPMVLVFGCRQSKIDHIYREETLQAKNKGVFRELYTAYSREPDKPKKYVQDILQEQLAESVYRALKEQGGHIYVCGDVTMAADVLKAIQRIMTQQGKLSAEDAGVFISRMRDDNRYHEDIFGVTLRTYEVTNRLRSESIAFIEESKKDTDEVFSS

Nitric oxide synthase 3 = biological target: T2, Nitric oxide synthase 3 (Homo sapiens, UniProt P29474); assay: Inhibition of human recombinant eNOS by microtiter plate assay
T2 sequence (P29474 whole entry): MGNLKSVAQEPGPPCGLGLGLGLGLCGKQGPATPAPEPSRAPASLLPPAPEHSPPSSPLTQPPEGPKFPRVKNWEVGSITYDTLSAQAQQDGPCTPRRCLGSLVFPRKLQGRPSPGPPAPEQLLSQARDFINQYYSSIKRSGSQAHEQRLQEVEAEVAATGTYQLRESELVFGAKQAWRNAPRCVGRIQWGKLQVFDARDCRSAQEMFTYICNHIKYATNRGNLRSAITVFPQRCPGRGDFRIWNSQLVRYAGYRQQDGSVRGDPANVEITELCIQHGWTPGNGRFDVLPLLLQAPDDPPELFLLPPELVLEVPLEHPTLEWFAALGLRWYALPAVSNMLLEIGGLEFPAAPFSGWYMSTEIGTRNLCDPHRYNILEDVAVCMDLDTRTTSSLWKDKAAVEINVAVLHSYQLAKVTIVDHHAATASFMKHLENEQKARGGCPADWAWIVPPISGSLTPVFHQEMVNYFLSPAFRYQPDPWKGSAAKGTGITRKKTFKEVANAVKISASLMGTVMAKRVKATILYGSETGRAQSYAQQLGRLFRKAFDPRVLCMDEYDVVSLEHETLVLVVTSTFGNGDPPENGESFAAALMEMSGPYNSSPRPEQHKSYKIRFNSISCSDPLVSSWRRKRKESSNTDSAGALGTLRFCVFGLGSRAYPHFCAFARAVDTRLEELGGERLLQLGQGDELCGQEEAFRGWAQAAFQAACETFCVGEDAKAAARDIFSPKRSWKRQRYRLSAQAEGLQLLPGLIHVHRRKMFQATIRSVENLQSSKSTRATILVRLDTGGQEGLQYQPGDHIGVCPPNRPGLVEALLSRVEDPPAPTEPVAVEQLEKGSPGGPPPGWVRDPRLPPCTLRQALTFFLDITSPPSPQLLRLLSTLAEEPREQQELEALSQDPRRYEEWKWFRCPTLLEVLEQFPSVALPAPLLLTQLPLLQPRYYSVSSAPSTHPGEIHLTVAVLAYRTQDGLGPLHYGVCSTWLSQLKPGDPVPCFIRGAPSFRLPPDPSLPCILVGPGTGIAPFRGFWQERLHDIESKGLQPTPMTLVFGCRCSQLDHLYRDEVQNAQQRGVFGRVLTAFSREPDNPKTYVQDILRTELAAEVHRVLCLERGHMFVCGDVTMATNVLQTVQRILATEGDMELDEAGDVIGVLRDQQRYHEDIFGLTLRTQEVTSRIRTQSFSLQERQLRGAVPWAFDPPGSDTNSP

[2] = biological target: T1, Nitric oxide synthase, inducible; assay: Binding affinity to human recombinant iNOS delta 65 residue

T1 sequence (P35228 whole entry): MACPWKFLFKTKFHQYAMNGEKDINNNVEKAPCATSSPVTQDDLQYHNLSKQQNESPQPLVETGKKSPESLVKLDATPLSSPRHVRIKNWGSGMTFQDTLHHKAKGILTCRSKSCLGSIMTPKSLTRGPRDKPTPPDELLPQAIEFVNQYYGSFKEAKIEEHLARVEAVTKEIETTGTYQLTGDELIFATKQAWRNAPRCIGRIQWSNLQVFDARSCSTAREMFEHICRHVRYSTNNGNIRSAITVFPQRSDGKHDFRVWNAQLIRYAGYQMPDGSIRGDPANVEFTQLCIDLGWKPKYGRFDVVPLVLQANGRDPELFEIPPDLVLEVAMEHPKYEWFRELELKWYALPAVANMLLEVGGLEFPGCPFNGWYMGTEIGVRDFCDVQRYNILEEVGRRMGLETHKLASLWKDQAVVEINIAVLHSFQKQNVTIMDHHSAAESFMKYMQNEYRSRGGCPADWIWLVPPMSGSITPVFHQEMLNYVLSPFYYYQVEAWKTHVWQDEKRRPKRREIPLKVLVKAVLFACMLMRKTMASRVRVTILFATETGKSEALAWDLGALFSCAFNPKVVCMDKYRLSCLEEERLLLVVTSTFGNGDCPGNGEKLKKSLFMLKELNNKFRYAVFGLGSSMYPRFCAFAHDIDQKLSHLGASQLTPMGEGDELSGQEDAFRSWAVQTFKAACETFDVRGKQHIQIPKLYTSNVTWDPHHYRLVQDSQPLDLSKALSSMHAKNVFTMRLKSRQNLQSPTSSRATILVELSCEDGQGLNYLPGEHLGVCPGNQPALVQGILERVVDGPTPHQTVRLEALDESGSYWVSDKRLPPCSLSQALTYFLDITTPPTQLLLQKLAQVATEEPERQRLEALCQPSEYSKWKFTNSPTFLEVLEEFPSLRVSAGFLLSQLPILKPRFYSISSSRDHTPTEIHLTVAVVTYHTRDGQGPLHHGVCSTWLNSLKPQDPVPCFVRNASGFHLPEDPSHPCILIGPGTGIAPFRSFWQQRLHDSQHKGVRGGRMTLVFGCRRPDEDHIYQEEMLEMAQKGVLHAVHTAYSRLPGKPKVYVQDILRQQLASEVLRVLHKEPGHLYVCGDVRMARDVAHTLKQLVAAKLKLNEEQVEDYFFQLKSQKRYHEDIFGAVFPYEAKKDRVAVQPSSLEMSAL

Row | SMILES | IC50 [1] [µM] | IC50 (Nitric oxide synthase 1) [nM] | IC50 (Nitric oxide synthase 3) [nM] | Kd [2] [nM]
1 | N=C(N)C1CCCCN1 (stereo not given) | > 100 |  |  | 
2 | N=C(N)[C@H]1CCCN1 | 0.12 | 14000 | 15000 | 630
3 | N=C(N)C1CCC1 [CYCLOBUTANECARBOXIMIDAMIDE] | 0.38 |  |  | 
4 | N=C(N)[C@@H]1CCCN1 | 9.4 | > 100000 | > 100000 | > 40000
5 | N=C(N)[C@H]1CCN1 | 0.03 | 260 | 250 | 
6 | N=C(N)C1C=CCN1 (stereo not given) | 0.18 |  |  | 
7 | N=C(N)C1CCCO1 (stereo not given) | 8.9 |  |  | 

Continued, values first:

Row | IC50 [1] [µM] | IC50 (Nitric oxide synthase 1) [nM] | IC50 (Nitric oxide synthase 3) [nM] | Kd [2] [nM] | SMILES
8 | 4.4 |  |  |  | [H]/N=C(/N)C1CCCC1 [CYCLOPENTANECARBOXIMIDAMIDE]
9 | 58 |  |  |  | N=C(N)C1CCNCC1
10 | 0.79 |  |  |  | N=C(N)C1CC1 [CYCLOPROPANECARBOXIMIDAMIDE]
11 | 51 |  |  |  | N=C(N)C1CCCNC1 (stereo not given)
12 | 0.2 | 1700 | 2400 |  | N=C(N)[C@@H]1CCN1
13 | 14 |  |  |  | N=C(N)C1CNC1
14 | 0.7 |  |  |  | N=C(N)C1CCCN1 (stereo not given)
15 | 5.3 |  |  |  | N=C(N)C1CCCS1 (stereo not given)
